Data as given in paper PMC5374420, “In Search of Small Molecule Inhibitors Targeting the Flexible CK2 Subunit Interface” (Pharmaceuticals, 2017).
Where a SMILES comes first, the peptide text is derived from it. Bridges are numbered along the chain shown (N, C = ends). The star is where a group is joined. Cbz = O=C(OCc1ccccc1)*; CH2F = FC*

Assays:
[1] = system: p21 Thr145 phosphorylation, survivin expression, AKT activation; assay: Western blot of intracellular events (AKT, phospho-p21 Thr145, survivin); format: cell-based; settings: 786-O cells, 12 h, increasing concentrations of CX-4945 (Figure S1)
Experimental: This was confirmed using the LIVE&DEAD^TM cell viability assay that provides a visual readout of cell integrity (Figure 8A lower panel). This cellular effect was also analyzed after treatment of WT or CK2β-depleted MCF-10A cells with increasing concentrations of TAT-Pc 13. TAT-Pc 13 caused a cell death in both cell types, which was already detectable at a concentration of 25 µM and became massive at 50–60 µM (Figure 8B). […] In order to investigate the intracellular events induced by TAT-Pc 13, MCF-10A cells were incubated with increasing concentrations of TAT-Pc 13 and analyzed by Western blot.
Figure 8 Cellular effects of TAT-Pc 13. (A) MCF-10A cells were incubated with 25 µM of TAT-Pc 13 for 3 h and imaged with phase microscopy (upper panel) or with increasing concentrations of TAT-Pc 13 for 2 h and cell viability was evaluated using the LIVE&DEAD™ assay. Live cells fluoresce bright green (530 nm), whereas dead cells fluoresce red-orange (645 nm) (lower panel, scale bare: 100 µm); (B) WT (○-○) or CK2β-depleted (●-●) MCF-10A cells were incubated for 4 h with increasing concentrations of TAT-Pc 13 and cell death was evaluated using the LIVE&DEAD™ assay recording fluorescence at 645 nm. Representative data shown from two independent experiments in duplicate; (C) MCF-10A cells were pre-treated in the absence or presence of 20 µM z-VAD for 5 h and then incubated for 4 h with 25 µM random TAT-Pc 13 or TAT-Pc 13 and cell viability was evaluated as in (A) (scale bare: 100 µm); and (D) intracellular events induced by increasing concentrations of TAT-Pc 13. After 12 h of treatment, 786-O cells were lysed and analyzed by Western blot. TEXT PRINTED IN THE PICTURE: (B) TAT-Pc 13: TAT-Pc 13 (μM): 48; TAT-Pc 13 (μM): 60 DOUBTS OF THE COPYIST ABOUT THIS PICTURE: Panel B: 48 and 60 are printed in red at the x axis, where dashed lines drop from the two curves at about 50 on the Cell death (%) axis. No measure name (e.g. IC50) is printed with them. […]

[2] = system: WT MCF-10A cells; assay: Cell death / viability, LIVE&DEAD assay, WT cells; format: cell-based; settings: MCF-10A; 20 µM z-VAD or 30 µM Necrostatin-1 for 5 h, then 25 µM TAT-Pc 13 for 4 h
Experimental: Figure 8 Cellular effects of TAT-Pc 13. (A) MCF-10A cells were incubated with 25 µM of TAT-Pc 13 for 3 h and imaged with phase microscopy (upper panel) or with increasing concentrations of TAT-Pc 13 for 2 h and cell viability was evaluated using the LIVE&DEAD™ assay. Live cells fluoresce bright green (530 nm), whereas dead cells fluoresce red-orange (645 nm) (lower panel, scale bare: 100 µm); (B) WT (○-○) or CK2β-depleted (●-●) MCF-10A cells were incubated for 4 h with increasing concentrations of TAT-Pc 13 and cell death was evaluated using the LIVE&DEAD™ assay recording fluorescence at 645 nm. Representative data shown from two independent experiments in duplicate; (C) MCF-10A cells were pre-treated in the absence or presence of 20 µM z-VAD for 5 h and then incubated for 4 h with 25 µM random TAT-Pc 13 or TAT-Pc 13 and cell viability was evaluated as in (A) (scale bare: 100 µm); and (D) intracellular events induced by increasing concentrations of TAT-Pc 13. After 12 h of treatment, 786-O cells were lysed and analyzed by Western blot. TEXT PRINTED IN THE PICTURE: (B) TAT-Pc 13: TAT-Pc 13 (μM): 48; TAT-Pc 13 (μM): 60 DOUBTS OF THE COPYIST ABOUT THIS PICTURE: Panel B: 48 and 60 are printed in red at the x axis, where dashed lines drop from the two curves at about 50 on the Cell death (%) axis. No measure name (e.g. IC50) is printed with them.
Cells were seeded in 96-well microtiter plates at a concentration of 1 × 10^5 cells/mL and were allowed to attach for 24 h at 37 °C in 5% CO2. Cells were then exposed to different concentrations of TAT-Pc 13 for the indicated time. Cell viability was evaluated using the fluorescence-based LIVE&DEAD™ assay (Molecular Probes, Thermo Fisher Scientific, Courtaboeuf, France) according to the manufacturer. Images were taken with an Apotome-equipped Zeiss Axioimager microscope (Zeiss, Oberkochen, German) recording the fluorescence at 530 nm (Live cells) and 645 nm (dead cells) respectively using a FluoStar Optima plate reader (BMG LabTech, Ortenberg, Germany).

[3] = biological target: T1, CK2 holoenzyme (Homo sapiens, UniProt P68400); assay: CK2 kinase assay with CK2β-dependent eIF2β-derived peptide substrate; format: biochemical; settings: result in words
T1 construct: made in house
Description: In a previous study, we used the X-ray structure of CK2β in the holoenzyme complex as a template for the design of a conformationally constrained 13-mer peptide (Pc 13) derived from the CK2β C-terminal domain and centred around the Tyr188 and Phe190 hotspots. Pc 13 is an eight-residue peptide (Arg186–His193) that contains a cluster of hydrophobic residues (Leu187, Tyr188 and Ile192) and three additional glycine residues, cyclized via two cysteine residues to ‘staple’ its conformation and to mimic the binding face of CK2β with CK2α [15]. […]
Figure 2 CK2β-derived cyclic peptides inhibit CK2 activity in vitro. […] Phosphorylated proteins were separated by SDS/PAGE (Sodium dodecylsulfate/ Polyacrylamide gel electrophoresis) and analyzed by autoradiography. […]
Figure 4 Inhibitory activity of a TAT-Pc analogue in vitro. […] CK2 activity was then determined with CK2β-dependent or independent peptide substrates; (B) [^35S]-labeled CK2α was incubated with biotinylated MBP-CK2β immobilized on streptavidin coated plates (preformed complex) in the absence (1) or presence (2) of TAT-Pc 13. […] After washing, the amount of [^35S]-labeled CK2α remaining in the complex was determined by radioactivity counting. […]

[4] = biological target: T2, CK2 holoenzyme (CK2α + CK2β) (Homo sapiens, UniProt P68400); assay: CK2-mediated phosphorylation of GST-Olig2 and of CK2β (autoradiography); format: biochemical; settings: 25 µM peptide
T2 construct: made in house
Experimental: Figure 2 CK2β-derived cyclic peptides inhibit CK2 activity in vitro. (A) a series of cyclized CK2β-derived peptide analogues varying in length from eight to 11 amino acids were tested for their effect on the phosphorylation of eIF2β-derived peptide substrate whose phosphorylation relies on the holoenzyme formation. Representative data shown from two independent experiments; (B) structure of Pc 11 (CC); (C) antagonist effect of Pc 11 (CC) on CK2-mediated phosphorylation of the CK2β-dependent substrate Olig2. CK2α was incubated alone or with CK2β in the absence or presence of 25 µM random Pc 11 (CC) or Pc 11 (CC) for 15 min at 4 °C, followed by the addition of GST (Gluthatione S-Transferase)-Olig2 (5 μg) and 25 μM [γ-^32P]ATP/MgCl2 for 5 min at room temperature. Phosphorylated proteins were separated by SDS/PAGE (Sodium dodecylsulfate/ Polyacrylamide gel electrophoresis) and analyzed by autoradiography. The gel was stained with coomassie blue to visualize GST-Olig2. TEXT PRINTED IN THE PICTURE: (A) no label printed: IC50 = 1-3 μM DOUBTS OF THE COPYIST ABOUT THIS PICTURE: Panel A: "IC50 = 1-3 μM" is printed once inside the plot, near the falling curves, and is not tied to any one peptide.

T2 sequence (P68400 whole entry): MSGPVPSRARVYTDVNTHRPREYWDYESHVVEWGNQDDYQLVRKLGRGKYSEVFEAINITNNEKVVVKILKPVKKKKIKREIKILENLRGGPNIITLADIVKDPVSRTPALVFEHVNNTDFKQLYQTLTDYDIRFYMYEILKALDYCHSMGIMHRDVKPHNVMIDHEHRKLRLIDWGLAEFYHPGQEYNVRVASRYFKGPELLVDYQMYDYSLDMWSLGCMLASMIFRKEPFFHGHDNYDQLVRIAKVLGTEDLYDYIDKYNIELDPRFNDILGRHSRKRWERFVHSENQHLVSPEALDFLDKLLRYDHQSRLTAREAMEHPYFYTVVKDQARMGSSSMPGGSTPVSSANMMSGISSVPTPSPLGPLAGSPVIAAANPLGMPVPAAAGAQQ
T1 sequence (P68400 whole entry): as above

**Q.** Which “phosphorylation of p21” value [1] does the source give for `O=C(O)c1ccc2c(c1)nc(Nc1cccc(Cl)c1)c1ccncc12` [CX-4945, 5-(3-chlorophenylamino)benzo[c][2,6]naphthyridine-8-carboxylic acid, reference compound] here?
**A.** The value was “strongly inhibited”.

**Q.** `CN1C(=O)C(Cc2c[nH]c3ccccc23)NC1=S` (stereo not drawn) [Necrostatin-1, reference compound] was tested. Which “effect of inhibitor pre-treatment on TAT-Pc 13-induced cell death” value [2] did it give?
**A.** The value was “prevented”.

**Q.** `CC(C)C[C@@H]1NC(=O)[C@H](CCCNC(=N)N)NC(=O)[C@@H](N)CSSC[C@@H](C(=O)O)NC(=O)[C@H](CCCCN)NC(=O)[C@H](Cc2ccccc2)NC(=O)CNC(=O)[C@H](Cc2ccc(O)cc2)NC1=O` [Pc 8 (CC)] (H-CRLYGFKC-OH; disulfide 1-8) was tested. Which “effect on phosphorylation of eIF2β peptide substrate” value [3] did it give?
**A.** Its value is “inactive”.

**Q.** Which results are given for `CC[C@H](C)[C@@H]1NC(=O)[C@H](CCCCN)NC(=O)[C@H](Cc2ccccc2)NC(=O)CNC(=O)[C@H](Cc2ccc(O)cc2)NC(=O)[C@H](CC(C)C)NC(=O)[C@H](CCCNC(=N)N)NC(=O)[C@@H](N)CSSC[C@@H](C(=O)O)NC(=O)CNC(=O)[C@H](Cc2c[nH]cn2)NC1=O` [Pc 11 (CC)] (H-CRLYGFKIHGC-OH; disulfide 1-11)?
**A.** phosphorylation of CK2β in the holoenzyme [4]: significantly affected; Olig-2 phosphorylation ([4]; 15 min at 4 °C, then GST-Olig2 and 25 μM ATP for 5 min at room temperature): strong decrease

**Q.** `COC(=O)C[C@H](NC(=O)[C@H](C)NC(=O)[C@@H](NC(=O)OCc1ccccc1)C(C)C)C(=O)CF` [z-VAD-FMK, reference compound] (Cbz-Val-Ala-Asp(OMe)-CH2F) was tested. Which “effect of inhibitor pre-treatment on TAT-Pc 13-induced cell death” value [2] did it give?
**A.** The value was “insensitive”.
